US5140009A (Tap Pharmaceuticals, Inc., priority 1990, dated 1992)
Numbered stars: 1 amine (or outer) side, 2 acyl side, 3 side chain; on linkers, the order of the positions; unused ones are H or OH. Square brackets hold non-standard residues; d marks the D form. Peptide text beside a SMILES is read from it. * marks the point of attachment. Propanoyl(3-(1-naphthyl)) = O=C(CCc1cccc2ccccc12)*; Propanoyl(3-indol-3-yl) = O=C(CCc1c[nH]c2ccccc12)*; Propanoyl(3,3-Ph2) = O=C(CC(c1ccccc1)c1ccccc1)*; Propanoyl(3-(4-F-phenyl)) = O=C(CCc1ccc(F)cc1)*; Acetyl(1-naphthyl) = O=C(Cc1cccc2ccccc12)*; 1Nal = N[C@@H](Cc1cccc2ccccc12)C(=O)O; 2Nal = N[C@@H](Cc1ccc2ccccc2c1)C(=O)O; d1Nal = N[C@H](Cc1cccc2ccccc12)C(=O)O; Lys(iPr) = CC(C)NCCCC[C@H](N)C(=O)O; NMeY = CN[C@@H](Cc1ccc(O)cc1)C(=O)O; 1Naphthoyl = O=C(c1cccc2ccccc12)*; Hydrocinnamoyl = O=C(CCc1ccccc1)*; Pyrazinecarbonyl = O=C(c1cnccn1)*; Benzoyl(4-F) = O=C(c1ccc(F)cc1)*; Nicotinoyl = O=C(c1cccnc1)*; X12 = O=C(c1ccc(F)c(Cl)c1)*; Morpholide = C1CN(*)CCO1; Orn = NCCC[C@H](N)C(=O)O; X1 = COc1ccccc1C=CC(=O)*; CO = O=C([*:1])[*:2]; Bn = c1ccc(C*)cc1

The compounds below were run against T1, LHRH receptors (Rattus norvegicus, UniProt P30969) (assay: Receptor Binding (radioligand receptor binding assay)). Settings: Receptor Binding pkI, table 3; rat pituitary membranes, radioiodinated [D-Leu^6 -des Gly^10 ]-LHRH ethyl amide 50 pM, 2 hours at 4° C.
T1 construct: Pituitary membranes containing LHRH receptors are prepared in batches from quick-frozen rat pituitaries; tissue Hilltop Labs; host or cells: rat pituitary membranes
T1 sequence (P30969 1-327): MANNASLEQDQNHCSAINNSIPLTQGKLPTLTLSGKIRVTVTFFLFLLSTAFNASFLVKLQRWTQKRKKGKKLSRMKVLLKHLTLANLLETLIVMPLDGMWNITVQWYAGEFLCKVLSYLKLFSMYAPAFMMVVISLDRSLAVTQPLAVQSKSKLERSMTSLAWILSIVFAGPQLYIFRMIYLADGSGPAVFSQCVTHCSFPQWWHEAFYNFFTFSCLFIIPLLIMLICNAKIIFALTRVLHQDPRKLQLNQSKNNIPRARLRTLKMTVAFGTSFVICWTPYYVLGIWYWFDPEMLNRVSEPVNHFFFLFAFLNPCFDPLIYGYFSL
`CCNC(=O)[C@@H]1CCCN1C(=O)[C@H](CCCNC(=N)N)NC(=O)[C@H](CC(C)C)NC(=O)[C@@H](Cc1c[nH]c2ccccc12)NC(=O)[C@H](Cc1ccc(O)cc1)NC(=O)[C@H](CO)NC(=O)CC(c1ccccc1)c1ccccc1` [Compound 14, (4-9)[N-(3-Diphenylpropionyl)-Ser^4 -D-Trp^6 -Pro^9 -NHEt]LHRH] ({Propanoyl(3,3-Ph2)}-SY[dW]LRP-NHEt) gave a Ki of 15.8 nM.

Same assay, conditions: table 3; rat pituitary membranes, radioiodinated [D-Leu^6 -des Gly^10 ]-LHRH ethyl amide 50 pM, 2 hours at 4° C.; read-out: Receptor Binding pkI (converted)
`CCNC(=O)[C@@H]1CCCN1C(=O)[C@H](CCCNC(=N)N)NC(=O)[C@H](CC(C)C)NC(=O)[C@@H](Cc1ccc(O)cc1)NC(=O)[C@H](Cc1ccc(O)cc1)NC(=O)[C@H](CO)NC(=O)[C@@H](Cc1ccc(O)cc1)NC(=O)CCc1ccc(F)cc1` [Compound 93, (3-9)[N-(3-(4-Fluorophenyl)propionyl) -D-Tyr^3,6 -Pro^9 NHEt]LHRH] ({Propanoyl(3-(4-F-phenyl))}-[dY]SY[dY]LRP-NHEt) was tested, and the Ki was 0.0158 nM. `CCNC(=O)[C@@H]1CCCN1C(=O)[C@H](CCCNC(=N)N)NC(=O)[C@H](CC(C)C)NC(=O)[C@@H](CCCNC(=N)N)NC(=O)[C@H](Cc1ccc(O)cc1)NC(=O)[C@H](COCc1ccccc1)NC(=O)CCc1cccc2ccccc12` [Compound 45, (4-9)[N-(3-(1-Naphthyl)propionyl)-Ser^4 (OBzl)-D-Arg^6 -Pro^9 -NHEt]LHRH] ({Propanoyl(3-(1-naphthyl))}-S(Bn)Y[dR]LRP-NHEt) gave a Ki of 6.03 nM. With `CCNC(=O)[C@@H]1CCCN1C(=O)[C@H](CCCNC(=N)N)NC(=O)[C@H](CC(C)C)NC(=O)[C@@H](CCC(N)=O)NC(=O)[C@H](Cc1ccc(O)cc1)NC(=O)[C@H](CO)NC(=O)CCc1c[nH]c2ccccc12` [Compound 50, (4-9)[N-(3-(3-Indole)propionyl)-Ser^4 -D-Gln^6 -Pro^9 -NHEt]LHRH] ({Propanoyl(3-indol-3-yl)}-SY[dQ]LRP-NHEt) the Ki was 166 nM. With `CCNC(=O)[C@@H]1CCCN1C(=O)[C@H](CCCNC(=N)N)NC(=O)[C@H](CC(C)C)NC(=O)[C@@H](Cc1c[nH]c2ccccc12)NC(=O)[C@H](Cc1ccc(O)cc1)NC(=O)[C@H](CO)NC(=O)[C@H](Cc1c[nH]c2ccccc12)NC(=O)CCc1ccccc1` [Compound 65, (3-9)[N-(3-Phenylpropionyl)-Trp^3 -D-Trp^6 -Pro^9 -NHEt]LHRH] (Hydrocinnamoyl-WSY[dW]LRP-NHEt) the Ki was 0.269 nM. `CCNC(=O)[C@@H]1CCCN1C(=O)[C@H](CCCNC(=N)N)NC(=O)[C@H](CC(C)C)NC(=O)[C@@H](Cc1c[nH]c2ccccc12)NC(=O)[C@H](Cc1ccc(O)cc1)NC(=O)[C@H](CO)NC(=O)[C@@H](Cc1c[nH]c2ccccc12)NC(=O)CCc1c[nH]c2ccccc12` [Compound 103, (3-9)[N-(3-Indolepropionyl)-D-Trp^3,6 -Pro^9 -NHEt]LHRH] ({Propanoyl(3-indol-3-yl)}-[dW]SY[dW]LRP-NHEt) showed a Ki of 0.0794 nM. `CCNC(=O)[C@@H]1CCCN1C(=O)[C@H](CCCNC(=N)N)NC(=O)[C@H](CC(C)C)NC(=O)[C@@H](CCCNC(=N)N)NC(=O)[C@H](Cc1ccc(O)cc1)NC(=O)[C@H](CO)NC(=O)c1cccc2ccccc12` [Compound 39, (4-9)[N-(1-Naphthoyl)-Ser^4 -D Arg^6 -Pro^9 -NHEt] LHRH] (1Naphthoyl-SY[dR]LRP-NHEt) was tested, and the Ki was 117 nM. For `CCNC(=O)[C@@H]1CCCN1C(=O)[C@H](CCCNC(=N)N)NC(=O)[C@H](CC(C)C)NC(=O)[C@@H](Cc1c[nH]c2ccccc12)NC(=O)[C@H](Cc1ccc(O)cc1)NC(=O)[C@H](CO)NC(=O)C=Cc1ccccc1OC` [Compound 16, (4-9)[N-(ortho-Methoxycinnamoyl)-Ser^4 -D-Trp^6 -Pro^9 -NHEt]LHRH] (X1-SY[dW]LRP-NHEt), the Ki was 1.41 nM. For `CCNC(=O)[C@@H]1CCCN1C(=O)[C@H](CCCNC(=N)N)NC(=O)[C@H](CC(C)C)NC(=O)[C@@H](CCCNC(=N)N)NC(=O)[C@H](Cc1ccc(O)cc1)NC(=O)[C@H](COCc1ccccc1)NC(=O)Cc1cccc2ccccc12` [Compound 38, (4-9)[N-(1-Naphthylacetyl)-Ser^4 (OBzl)-D-Arg^6 -Pro^9 -NHEt]LHRH] ({Acetyl(1-naphthyl)}-S(Bn)Y[dR]LRP-NHEt), the Ki was 28.8 nM. `CCNC(=O)N[C@@H](Cc1ccccc1)C(=O)N[C@@H](Cc1c[nH]c2ccccc12)C(=O)N[C@@H](CO)C(=O)N[C@@H](Cc1ccc(O)cc1)C(=O)N[C@H](Cc1c[nH]c2ccccc12)C(=O)N[C@@H](CC(C)C)C(=O)N[C@@H](CCCNC(=N)N)C(=O)N1CCC[C@H]1C(=O)NCC` [Compound 127, (2-9)[N-(N-alpha-Ethylaminocarbonyl)-Phe^2 -D-Trp^6 -Pro^9 NHEt]LHRH] ({NHEt-CO}-FWSY[dW]LRP-NHEt) was tested, and the Ki was 0.2 nM. `CCNC(=O)[C@@H]1CCCN1C(=O)[C@H](CCCNC(=N)N)NC(=O)[C@H](CC(C)C)NC(=O)[C@@H](Cc1c[nH]c2ccccc12)NC(=O)[C@H](Cc1ccc(O)cc1)NC(=O)[C@H](CO)NC(=O)[C@H](Cc1ccc2ccccc2c1)NC(C)=O` [Compound 84, (3-9)[N-Ac-2-Nal^3 -D-Trp^6 -Pro^9 NHEt]LHRH] (Ac-[2Nal]SY[dW]LRP-NHEt) showed a Ki of 1.41 nM.

Same assay, conditions: table 4; rat pituitary membranes, radioligand 50 pM, 2 hours at 4° C.; read-out: Receptor Binding pkI (converted)
Compound `CC(=O)NCCCC[C@H](NC(=O)c1ccc(F)c(Cl)c1)C(=O)N[C@H](Cc1cccc2ccccc12)C(=O)N[C@@H](CO)C(=O)N(C)[C@@H](Cc1ccc(O)cc1)C(=O)N[C@H](CCCCN)C(=O)N[C@@H](CC(C)C)C(=O)N[C@@H](CCCNC(=N)N)C(=O)N1CCC[C@H]1C(=O)N[C@H](C)C(N)=O` [Compound 214, N-alpha-(3-Chloro-4-Fluorobenzoyl)-Lys(N-epsilon-acetyl)-D-1-Nal-Ser-NMeTyr-D-Lys-Leu-Arg-Pro-D-AlaNH2] (X12-K(Ac)[d1Nal]S[NMeY][dK]LRP[dA]-NH2) has a Ki of 0.141 nM. In the case of `COc1ccc(C[C@H](NC(=O)[C@H](CO)NC(=O)[C@@H](Cc2cccc3ccccc23)NC(=O)CCc2ccc(F)cc2)C(=O)N[C@H](CCCCNC(=O)c2cnccn2)C(=O)N[C@@H](CC(C)C)C(=O)N[C@@H](CCCCNC(C)C)C(=O)N2CCC[C@H]2C(=O)N[C@H](C)C(N)=O)cc1` [Compound 203, (3-10)[N-(3-(4-Fluorophenyl)propionyl)-D-1-Nal^3 -Tyr^5 (OMe)-D-Lys^6 (N-epsilon-2-carbonylpyrazinyl)-Lys^8 (N-epsilon-isopropyl)-D-Ala^10]LHRH] ({Propanoyl(3-(4-F-phenyl))}-[d1Nal]SY(Me)[dK](Pyrazinecarbonyl)L[Lys(iPr)]P[dA]-NH2), the Ki is reported as 0.0209 nM. Work on `CCNC(=O)[C@@H]1CCCN1C(=O)[C@H](CCCNC(=N)N)NC(=O)[C@H](CC(C)C)NC(=O)[C@@H](Cc1c[nH]c2ccccc12)NC(=O)[C@H](Cc1ccc(O)cc1)N(C)C(=O)[C@H](CO)NC(=O)[C@H](Cc1cccc2ccccc12)NC(=O)CCc1ccc(F)cc1` [Compound 158, (3-9)[N-(3-(4-Fluorophenyl)propionyl) -1-Nal^3 -NMeTyr^5 -DTrp^6 -Pro^9 NHEt]LHRH] ({Propanoyl(3-(4-F-phenyl))}-[1Nal]S[NMeY][dW]LRP-NHEt) yielded a Ki of 0.0174 nM. `CC(=O)NCCC[C@H](NC(=O)c1ccc(F)cc1)C(=O)N[C@H](Cc1cccc2ccccc12)C(=O)N[C@@H](CO)C(=O)N(C)[C@@H](Cc1ccc(O)cc1)C(=O)N[C@H](CCCCNC(=O)c1cccnc1)C(=O)N[C@@H](CC(C)C)C(=O)N[C@@H](CCCCNC(C)C)C(=O)N1CCC[C@H]1C(=O)N[C@H](C)C(N)=O` [Compound 218, N-alpha-(4-Fluorobenzoyl)-Orn(N-delta-acetyl)-D-1-Nal-Ser-NMeTyr-D-Lys(N-epsilon-nicotinyl)-Leu-Lys(N-epsilon-isopropyl)-Pro-D-AlaNH2] ({Benzoyl(4-F)}-[Orn](Ac)[d1Nal]S[NMeY][dK](Nicotinoyl)L[Lys(iPr)]P[dA]-NH2) gave a Ki of 0.832 nM. `CC(C)C[C@H](NC(=O)[C@@H](Cc1c[nH]c2ccccc12)NC(=O)[C@H](Cc1ccc(O)cc1)N(C)C(=O)[C@H](CO)NC(=O)[C@@H](Cc1c[nH]c2ccccc12)NC(=O)CCc1ccc(F)cc1)C(=O)N[C@@H](CCCNC(=N)N)C(=O)N1CCC[C@H]1C(=O)N[C@H](C)C(N)=O` [Compound 164, (3-10)[N-(3-(4-Fluorophenyl)propionyl)-D-Trp^3,6 -NMeTyr^5 -D-Ala^10]LHRH] ({Propanoyl(3-(4-F-phenyl))}-[dW]S[NMeY][dW]LRP[dA]-NH2) was tested, and the Ki was 0.0537 nM. In the case of `CC(C)C[C@H](NC(=O)[C@@H](Cc1c[nH]c2ccccc12)NC(=O)[C@H](Cc1ccc(O)cc1)NC(=O)[C@H](CO)NC(=O)[C@H](Cc1c[nH]c2ccccc12)NC(=O)[C@H](Cc1cccc2ccccc12)NC(=O)N1CCOCC1)C(=O)N[C@@H](CCCNC(=N)N)C(=O)N1CCC[C@H]1C(=O)N[C@H](C)C(N)=O` [Compound 223, (2-10)[N-(alpha-Morpholinocarbonyl)-1-Nal^2 -D-Trp^6 -D-Ala^10]LHRH] ({Morpholide-CO}-[1Nal]WSY[dW]LRP[dA]-NH2), the Ki is reported as 0.0269 nM. `CCNC(=O)N[C@@H](Cc1ccccc1)C(=O)N[C@@H](Cc1cccc2ccccc12)C(=O)N[C@@H](CO)C(=O)N[C@@H](Cc1ccc(O)cc1)C(=O)N[C@H](Cc1c[nH]c2ccccc12)C(=O)N[C@@H](CC(C)C)C(=O)N[C@@H](CCCNC(=N)N)C(=O)N1CCC[C@H]1C(=O)NCC` [Compound 239, (2-9)[N-(alpha-Ethylaminocarbonyl)-Phe^2-1-Nal^3 -D-Trp^6 -Pro^9 NHEt]LHRH] ({NHEt-CO}-F[1Nal]SY[dW]LRP-NHEt) showed a Ki of 0.832 nM.
